Data taken from US20150344457A1, “METHODS OF INHIBITING PRMT5” (EPIZYME, INC., priority 2012, published 2015).

Test system: Z-138 cells
Assay: Z-138 Methylation Assay (In Cell Western for symmetric di-methyl arginine and DNA content)
Assay type: cell-based
Conditions: Homo sapiens, Table D-2, read-out: ICW EC50
Procedure, shortened: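 Symmetric di-methyl arginine signal (800 nm) ratioed to DNA content (700 nm) by In Cell Western after four days of compound treatment of Z-138 suspension cells seeded at 50,000 cells/mL. Percent inhibition set between DMSO and 3 μM reference wells; IC50 curves from triplicates.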

EC50 [µM]	Structure (SMILES)
1 to 10	N#Cc1ccccc1-c1cccc(OCC(O)CN2CCc3ccccc3C2)c1 (stereo not drawn) [Compound D93]
1 to 10	N#Cc1ccc(-c2cccc(OCC(O)CN3CCc4ccccc4C3)c2)cc1 (stereo not drawn) [Compound D94]
1 to 10	Oc1cccc(-c2cccc(OCC(O)CN3CCc4ccccc4C3)c2)c1 (stereo not drawn) [Compound D95]
